Data published in patent US6924302B2, “Substituted triazole diamine derivatives as kinase inhibitors” (Ortho McNeil Pharmaceutical, Inc., priority 2000, dated 2005).

Legend:
ERK-1 protein = molecular target: T1, ERK-1 protein (Homo sapiens, UniProt P27361); test: Kinase Selectivity Assay ERK-1; type: biochemical; settings: Tables 2a-2k
T1 construct: purchased Calbiochem
Description: Assays to test compound inhibition of other kinases were preformed using methods that measure the amount of phosphorylation of a biotinylated peptide substrate. Biotinylated peptide substrates were selected from the literature as appropriate for the enzyme being evaluated. The general procedure used to assay for kinase activity is as follows: A kinase reaction mix was prepared in 50 mM Tris-HCl pH=8, 10 mM MgCl2, 0.1 mM Na3VO4, 1 mM DTT, 10 μM ATP, 0.25-1 μM biotinylated peptide substrate, 0.2-0.82 μCuries per well ^33P-γ-ATP [2000-3000 Ci/mmol]. Assay conditions vary slightly for each protein kinase, for example, insulin receptor kinase requires 10 mM MnCl2 for activity and Calmodulin-dependent protein kinase requires calmodulin and 10 mM CaCl2. These assay conditions are known in the art. […] The plate was read on a scintillation counter to determine ^33P-γ-ATP incorporated into the immobilized peptide. […] A maximum and minimum signal for the assay was determined on each plate. The IC50 was calculated from the dose response curve of the percent inhibition of the maximum signal in the assay according to the formula [max signal—background/test compound signal—background (100)=% inhibition] by graphing the percent inhibition against the log concentration of test compound. […]

[1] = molecular target: PKC (protein kinase-C), gamma or beta isoform; test: Kinase Selectivity Assay PKC; type: biochemical, human; settings: Tables 2a-2k
Description: Assays to test compound inhibition of other kinases were preformed using methods that measure the amount of phosphorylation of a biotinylated peptide substrate. Biotinylated peptide substrates were selected from the literature as appropriate for the enzyme being evaluated. […] Assay conditions vary slightly for each protein kinase, for example, insulin receptor kinase requires 10 mM MnCl2 for activity and Calmodulin-dependent protein kinase requires calmodulin and 10 mM CaCl2. These assay conditions are known in the art. The reaction mixture was dispensed into the wells of a streptavidin coated Flashplate and 1 μl drug stock in 100% DMSO was added to a 100 μl reaction volume resulting in a final concentration of 1% DMSO on the reaction. Enzyme was diluted in 50 mM Tris-HCl pH=8.0, 0.1% BSA and add to each well. The reaction was incubated for one hour at 30° C. in the presence of compound. After one hour the reaction mix was aspirated from the plate and the plate was washed with PBS containing 100 mM EDTA. The plate was read on a scintillation counter to determine ^33P-γ-ATP incorporated into the immobilized peptide. Test compounds were assayed in duplicate at 8 concentrations [100 uM, 10 uM, 1 uM, 100 nM, 10 nM, 1 nM, 100 pM, 10 pM]. A maximum and minimum signal for the assay was determined on each plate. The IC50 was calculated from the dose response curve of the percent inhibition of the maximum signal in the assay according to the formula [max signal—background/test compound signal—background (100)=% inhibition] by graphing the percent inhibition against the log concentration of test compound. Known inhibitor compounds appropriate for the kinase being assayed were also included on each plate.
CDK2 in complex with cyclin A is commercially available (Upstate Biotech, Lake Placid, N.Y.). […]

T1 sequence (P27361 whole entry, species assumed): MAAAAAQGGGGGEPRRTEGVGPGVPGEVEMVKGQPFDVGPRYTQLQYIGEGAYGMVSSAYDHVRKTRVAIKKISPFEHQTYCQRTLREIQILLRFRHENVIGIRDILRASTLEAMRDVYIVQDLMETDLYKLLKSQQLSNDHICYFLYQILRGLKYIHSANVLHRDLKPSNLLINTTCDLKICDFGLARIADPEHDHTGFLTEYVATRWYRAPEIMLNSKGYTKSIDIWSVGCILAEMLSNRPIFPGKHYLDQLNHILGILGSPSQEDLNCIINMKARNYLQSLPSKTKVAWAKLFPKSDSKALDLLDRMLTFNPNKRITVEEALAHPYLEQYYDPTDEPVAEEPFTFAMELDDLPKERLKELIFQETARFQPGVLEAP

| Structure (SMILES) | IC50 (ERK-1 protein) [µM] | IC50 [1] [µM] |
| --- | --- | --- |
| Nc1nc(Nc2ccc(S(N)(=O)=O)cc2)nn1C(=O)c1cccs1 [Cpd 14, 4-[[5-amino-1-(2-thienylcarbonyl)-1H-1,2,4-triazol-3-yl]amino]-benzenesulfonamide] | > 100 |  |
| Cc1ccsc1C(=O)n1nc(Nc2ccc(N3CCNC3=O)cc2)nc1N [Cpd 113, 1-[4-[[5-amino-1-[(3-methyl-2-thienyl)carbonyl]-1H-1,2,4-triazol-3-yl]amino]phenyl]-2-imidazolidinone] |  | > 100 |
